Source: BindingDB's records for doi:10.1021/jm990309x (University of New Mexico, 1999)

Target: Bile salt-activated lipase (Sus scrofa)
Assay: Inhibition of the Pancreatic Cholesterol Esterase from porcine

| Compound | Ki |
| --- | --- |
| O=c1oc(Cl)ccc1CCC1CCCCC1 [6-Chloro-3-(2-cyclohexyl-ethyl)-pyran-2-one] | 25 nM |
| O=c1oc(Cl)ccc1CCCC1CCCCC1 [6-Chloro-3-(3-cyclohexyl-propyl)-pyran-2-one] | 60 nM |
| O=c1oc(Cl)ccc1CC1CCCCC1 [6-Chloro-3-cyclohexylmethyl-pyran-2-one] | 2200 nM |
